Measurements: US10358463B2, “Immunomodulators” (BRISTOL-MYERS SQUIBB COMPANY, priority 2016, dated 2019)
Numbered stars: 1 amine (or outer) side, 2 acyl side, 3 side chain; on linkers, the order of the positions; unused ones are H or OH. Bridge positions count the residues as written; N and C are the ends. Square brackets hold non-standard residues; d marks the D form. Peptide text beside a SMILES is read from it. ξ: configuration not given here. Trp(1-CH2CONHSO2Me) = CS(=O)(=O)NC(=O)Cn1cc(C[C@H](N)C(=O)O)c2ccccc21; Trp(4-aza,1-CH2COOH) = N[C@@H](Cc1cn(CC(=O)O)c2cccnc12)C(=O)O; Trp(7-aza,1-CH2COOH) = N[C@@H](Cc1cn(CC(=O)O)c2ncccc12)C(=O)O; X1 = O=C(O)Cn1c(C(=O)O)c(C[C@H](N[*:1])C(=O)[*:2])c2ccccc21; X5 = O=C(O)Cn1nc(C[C@H](N[*:1])C(=O)[*:2])c2ccccc21; Trp(5-CN) = N#Cc1ccc2[nH]cc(C[C@H](N)C(=O)O)c2c1; X2 = O=C(O)Cc1cn(CC(N[*:1])C(=O)[*:2])c2cccnc12; X8 = O=C(O)Cn1cc(CC(N[*:1])C(=O)[*:2])c2cncnc21; Phe(4-F) = N[C@@H](Cc1ccc(F)cc1)C(=O)O; Hyp = O=C(O)[C@@H]1C[C@@H](O)CN1; NMeNle = CCCC[C@H](NC)C(=O)O; Pen = CC(C)(S)[C@H](N)C(=O)O; Pip = O=C(O)[C@@H]1CCCCN1; NMeA = CN[C@@H](C)C(=O)O; Dab = NCC[C@H](N)C(=O)O; Dap = NC[C@H](N)C(=O)O; ξP = O=C(O)C1CCCN1

Target: T1, PD-1-Ig binding to PD-L1-TVMV-His (PD-L1-His) (Homo sapiens, UniProt Q9NZQ7)
T1 construct: hPDL1 (19-239)-TVMV-His; TVMV protease cleavage site (C); made in house; host or cells: HEK293T cells
Assay: PD-1/PD-L1 Homogenous Time-Resolved Fluorescence (HTRF) binding assay
Conditions: PD-1-Ig (20 nM)/PD-L1-His (10 nM)
Description: The ability of the macrocyclic peptides of the present disclosure to bind to PD-L1 was investigated using a PD-1/PD-L1 Homogenous Time-Resolved Fluorescence (HTRF) binding assay.
Homogenous Time-Resolved Fluorescence (HTRF) Assays of Binding of Soluble PD-1 to Soluble PD-L1. Soluble PD-1 and soluble PD-L1 refers to proteins with carboxyl-end truncations that remove the transmembrane-spanning regions and are fused to heterologous sequences, specifically the Fc portion of the human immunoglobuling G sequence (Ig) or the hexahistidine epitope tag (His). All binding studies were performed in an HTRF assay buffer consisting of dPBS supplemented with 0.1% (w/v) bovine serum albumin and 0.05% (v/v) Tween-20. For the PD-1-Ig/PD-L1-His binding assay, inhibitors were pre-incubated with PD-L1-His (10 nM final) for 15 m in 4 μl of assay buffer, followed by addition of PD-1-Ig (20 nM final) in 1 μl of assay buffer and further incubation for 15 m. PD-L1 fusion proteins from either human, cynomologous macaques, mouse, or other species were used. HTRF detection was achieved using europium crypate-labeled anti-Ig monoclonal antibody (1 nM final) and allophycocyanin (APC) labeled anti-His monoclonal antibody (20 nM final). Antibodies were diluted in HTRF detection buffer and 5 μl was dispensed on top of binding reaction. The reaction was allowed to equilibrate for 30 minutes and signal (665 nm/620 nm ratio) was obtained using an EnVision fluorometer. Additional binding assays were established between PD-1-Ig/PD-L2-His (20 and 5 nM, respectively), CD80-His/PD-L1-Ig (100 and 10 nM, respectively) and CD80-His/CTLA4-Ig (10 and 5 nM, respectively). Binding/competition studies between biotinylated Compound No. 71 and human PD-L1-His were performed as follows. Macrocyclic peptide inhibitors were pre-incubated with PD-L1-His (10 nM final) for 60 minutes in 4 μl of assay buffer followed by addition of biotinylated Compound No. 71 (0.5 nM final) in 1 μl of assay buffer. Binding was allowed to equilibrate for 30 minutes followed by addition of europium crylated labeled Streptavidin (2.5 pM final) and APC-labeled anti-His (20 nM final) in 5 μl of HTRF buffer. The reaction was allowed to equilibrate for 30 m and signal (665 nm/620 nm ratio) was obtained using an EnVision fluorometer.
Recombinant Proteins. Carboxyl-truncated human PD-1 (amino acids 25-167) with a C-terminal human Ig epitope tag [hPD-1 (25-167)-3S-IG] and human PD-L1 (amino acids 18-239) with a C-terminal His epitope tag [hPD-L1(19-239)-tobacco vein mottling virus protease cleavage site (TVMV)-His] were expressed in HEK293T cells and purified sequentially by recombinant Protein A affinity chromatography and size exclusion chromatography. Human PD-L2-His (Sino Biologicals), CD80-His (Sino Biologicals), CTLA4-Ig (RnD Systems) were all obtained through commercial sources.

T1 sequence (Q9NZQ7 with tags, fused parts or gaps): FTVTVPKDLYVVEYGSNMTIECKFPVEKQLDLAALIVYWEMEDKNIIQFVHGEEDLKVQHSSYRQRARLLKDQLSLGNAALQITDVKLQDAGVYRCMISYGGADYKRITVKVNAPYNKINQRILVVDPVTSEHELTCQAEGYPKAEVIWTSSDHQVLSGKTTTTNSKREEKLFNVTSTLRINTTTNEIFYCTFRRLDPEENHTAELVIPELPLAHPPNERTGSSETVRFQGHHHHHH

Structure (SMILES) | IC50 (range class) | IC50 (numeric value)
CCCC[C@H]1C(=O)N(C)[C@@H](CCCC)C(=O)N[C@@H](CC(C)C)C(=O)N[C@H](C(=O)NCC(N)=O)CSCC(=O)N[C@@H](Cc2ccc(O)cc2)C(=O)N(C)[C@@H](C)C(=O)N[C@@H](CC(=O)O)C(=O)N2CCC[C@H]2C(=O)N[C@@H](Cc2cnc[nH]2)C(=O)N[C@@H](CCCCN)C(=O)N2C[C@H](O)C[C@H]2C(=O)N[C@@H](Cc2c[nH]c3ccccc23)C(=O)N[C@@H](CCCCN)C(=O)N[C@@H](Cc2cn(CC(=O)NS(C)(=O)=O)c3ccccc23)C(=O)N1C [Example 1019] ({CH2CO}-Y[NMeA]DPHK[Hyp]WK[Trp(1-CH2CONHSO2Me)][NMeNle][NMeNle]LCG-NH2; thioether N-14) | 1 to 9.9 nM | 
CCCC[C@H]1C(=O)N(C)[C@@H](CCCC)C(=O)N[C@@H](CC(C)C)C(=O)N[C@H](C(=O)NCC(N)=O)CSCC(=O)N[C@@H](Cc2ccc(O)cc2)C(=O)N(C)[C@@H](C)C(=O)N[C@@H](CC(N)=O)C(=O)N2CCC[C@H]2C(=O)N[C@@H](CN)C(=O)N[C@@H](CC(C)C)C(=O)N2C[C@H](O)C[C@H]2C(=O)N[C@@H](Cc2c[nH]c3ccccc23)C(=O)N[C@@H](CCN)C(=O)N[C@@H](Cc2cn(CC(=O)NS(C)(=O)=O)c3ccccc23)C(=O)N1C [Example 1001] ({CH2CO}-Y[NMeA]NP[Dap]L[Hyp]W[Dab][Trp(1-CH2CONHSO2Me)][NMeNle][NMeNle]LCG-NH2; thioether N-14) |  | 4 nM
CCCC[C@H]1C(=O)N(C)[C@@H](CCCC)C(=O)N[C@@H](CC(C)C)C(=O)N[C@H](C(=O)NCC(N)=O)CSCC(=O)N[C@@H](Cc2ccc(O)cc2)C(=O)N(C)[C@@H](C)C(=O)N[C@@H](CC(N)=O)C(=O)N2CCC[C@H]2C(=O)N[C@@H](CN)C(=O)N[C@@H](CC(C)C)C(=O)N2C[C@H](O)C[C@H]2C(=O)N[C@@H](Cc2c[nH]c3ccccc23)C(=O)N[C@@H](CCN)C(=O)NC(Cc2cn(CC(=O)O)c3ncncc23)C(=O)N1C (some centres unmarked) [Example 10002] ({CH2CO}-Y[NMeA]NP[Dap]L[Hyp]W[Dab][X8][NMeNle][NMeNle]LCG-NH2; thioether N-14) | 100 to 990 nM | 
CCCC[C@H]1C(=O)N(C)[C@@H](CCCC)C(=O)N[C@@H](C)C(=O)N[C@H](C(=O)NCC(N)=O)CSCC(=O)N[C@@H](Cc2ccc(O)cc2)C(=O)N(C)[C@@H](C)C(=O)N[C@@H](CC(N)=O)C(=O)N2CCCC2C(=O)N[C@@H](Cc2cnc[nH]2)C(=O)N[C@@H](CCC(N)=O)C(=O)N2C[C@H](O)C[C@H]2C(=O)N[C@@H](Cc2c[nH]c3ccccc23)C(=O)N[C@@H](CO)C(=O)N[C@@H](Cc2c[nH]c3ccc(C#N)cc23)C(=O)N1C (some centres unmarked) [Example 1284] ({CH2CO}-Y[NMeA]N[ξP]HQ[Hyp]WS[Trp(5-CN)][NMeNle][NMeNle]ACG-NH2; thioether N-14) | 100 to 990 nM | 
CCCC[C@H]1C(=O)N(C)[C@@H](CCCC)C(=O)N[C@@H](CC(C)C)C(=O)N[C@H](C(=O)NCC(N)=O)CSCC(=O)N[C@@H](Cc2ccc(O)cc2)C(=O)N(C)[C@@H](C)C(=O)N[C@@H](CC(N)=O)C(=O)N2CCC[C@H]2C(=O)N[C@@H](CN)C(=O)N[C@@H](CC(C)C)C(=O)N2C[C@H](O)C[C@H]2C(=O)N[C@@H](Cc2c[nH]c3ccccc23)C(=O)N[C@@H](CCN)C(=O)N[C@@H](Cc2nn(CC(=O)O)c3ccccc23)C(=O)N1C [Example 10500] ({CH2CO}-Y[NMeA]NP[Dap]L[Hyp]W[Dab][X5][NMeNle][NMeNle]LCG-NH2; thioether N-14) | 1 to 9.9 nM | 
CCCC[C@H]1C(=O)N(C)[C@@H](CCCC)C(=O)N[C@@H](CC(C)C)C(=O)N[C@H](C(N)=O)C(C)(C)SCC(=O)N[C@@H](Cc2ccc(O)cc2)C(=O)N2CCCC[C@H]2C(=O)N[C@@H](CC(=O)O)C(=O)N2CCC[C@H]2C(=O)N[C@@H](Cc2cnc[nH]2)C(=O)N[C@@H](CCC(=O)O)C(=O)N2C[C@H](O)C[C@H]2C(=O)N[C@@H](Cc2c[nH]c3ccccc23)C(=O)N[C@@H](CCN)C(=O)N[C@@H](Cc2cn(CC(=O)NS(C)(=O)=O)c3ccccc23)C(=O)N1C [Example 1010] ({CH2CO}-Y[Pip]DPHE[Hyp]W[Dab][Trp(1-CH2CONHSO2Me)][NMeNle][NMeNle]L[Pen]-NH2; thioether N-14) | 1 to 9.9 nM | 
CCCC[C@H]1C(=O)N(C)[C@@H](CCCC)C(=O)N[C@@H](CC(C)C)C(=O)N[C@H](C(=O)NCC(N)=O)CSCC(=O)N[C@@H](Cc2ccc(O)cc2)C(=O)N(C)[C@@H](C)C(=O)N[C@@H](CC(N)=O)C(=O)N2CCC[C@H]2C(=O)N[C@@H](CN)C(=O)N[C@@H](CC(C)C)C(=O)N2C[C@H](O)C[C@H]2C(=O)N[C@@H](Cc2c[nH]c3ccccc23)C(=O)N[C@@H](CCN)C(=O)N[C@@H](Cc2c(C(=O)O)n(CC(=O)O)c3ccccc23)C(=O)N1C [Example 1013] ({CH2CO}-Y[NMeA]NP[Dap]L[Hyp]W[Dab][X1][NMeNle][NMeNle]LCG-NH2; thioether N-14) | 10 to 99 nM | 
CCCC[C@H]1C(=O)N(C)[C@@H](CCCC)C(=O)N[C@@H](CC(C)C)C(=O)N[C@H](C(N)=O)C(C)(C)SCC(=O)N[C@@H](Cc2ccc(F)cc2)C(=O)N2CCCC[C@H]2C(=O)N[C@@H](CC(=O)O)C(=O)N2CCC[C@H]2C(=O)N[C@@H](Cc2cnc[nH]2)C(=O)N[C@@H](CCC(=O)O)C(=O)N2C[C@H](O)C[C@H]2C(=O)N[C@@H](Cc2c[nH]c3ccccc23)C(=O)N[C@@H](CCN)C(=O)N[C@@H](Cc2cn(CC(=O)NS(C)(=O)=O)c3ccccc23)C(=O)N1C [Example 1006] ({CH2CO}-[Phe(4-F)][Pip]DPHE[Hyp]W[Dab][Trp(1-CH2CONHSO2Me)][NMeNle][NMeNle]L[Pen]-NH2; thioether N-14) | 1 to 9.9 nM | 
CCCC[C@H]1C(=O)N(C)[C@@H](CCCC)C(=O)N[C@@H](CC(C)C)C(=O)N[C@H](C(N)=O)CSCC(=O)N[C@@H](Cc2ccc(O)cc2)C(=O)N(C)[C@@H](C)C(=O)N[C@@H](CC(N)=O)C(=O)N2CCC[C@H]2C(=O)N[C@@H](CN)C(=O)N[C@@H](CC(C)C)C(=O)N2C[C@H](O)C[C@H]2C(=O)N[C@@H](Cc2c[nH]c3ccccc23)C(=O)N[C@@H](CCN)C(=O)N[C@@H](Cc2cn(CC(=O)O)c3cccnc23)C(=O)N1C [Example 10502] ({CH2CO}-Y[NMeA]NP[Dap]L[Hyp]W[Dab][Trp(4-aza,1-CH2COOH)][NMeNle][NMeNle]LC-NH2; thioether N-14) |  | 13 nM
CCCC[C@H]1C(=O)N(C)[C@@H](CCCC)C(=O)N[C@@H](CC(C)C)C(=O)N[C@H](C(N)=O)CSCC(=O)N[C@@H](Cc2ccc(O)cc2)C(=O)N(C)[C@@H](C)C(=O)N[C@@H](CC(N)=O)C(=O)N2CCC[C@H]2C(=O)N[C@@H](CN)C(=O)N[C@@H](CC(C)C)C(=O)N2C[C@H](O)C[C@H]2C(=O)N[C@@H](Cc2c[nH]c3ccccc23)C(=O)N[C@@H](CCN)C(=O)N[C@@H](Cc2cn(CC(=O)O)c3ncccc23)C(=O)N1C [Example 10504] ({CH2CO}-Y[NMeA]NP[Dap]L[Hyp]W[Dab][Trp(7-aza,1-CH2COOH)][NMeNle][NMeNle]LC-NH2; thioether N-14) | 1 to 9.9 nM | 
CCCC[C@H]1C(=O)N(C)[C@@H](CCCC)C(=O)N[C@@H](CC(C)C)C(=O)N[C@H](C(=O)NCC(N)=O)CSCC(=O)N[C@@H](Cc2ccc(O)cc2)C(=O)N(C)[C@@H](C)C(=O)N[C@@H](CC(N)=O)C(=O)N2CCC[C@H]2C(=O)N[C@@H](CN)C(=O)N[C@@H](CC(C)C)C(=O)N2C[C@H](O)C[C@H]2C(=O)N[C@@H](Cc2c[nH]c3ccccc23)C(=O)N[C@@H](CCN)C(=O)NC(Cn2cc(CC(=O)O)c3ncccc32)C(=O)N1C (some centres unmarked) [Example 10003] ({CH2CO}-Y[NMeA]NP[Dap]L[Hyp]W[Dab][X2][NMeNle][NMeNle]LCG-NH2; thioether N-14) | 100 to 990 nM | 
